This note sets out measurements from patent US12465659B2, “Iron(III) complexes having new contrast agent properties, for magnetic resonance imaging” (CHARITÉ—UNIVERSITÄTSMEDIZIN BERLIN, priority 2019, dated 2025).

The nature of data set [1]: T1-relaxivity measurements at different magnetic field strengths in water and foetal bovine serum. The format is physicochemical. On the procedure: For the subsequent T1-relaxivity measurements which were carried out, ultra-pure water and foetal bovine serum (FBS, pH 7.7) were used as the solvent for the metallic complexes. The relaxivity measurements at different magnetic field strengths were carried out on the following instruments: 0.94 T with a NMR relaxometer (Bruker Minispec mq 40, Germany), 1.5 T with a SIEMENS MAGNETOM Sonata MRI, 3 T with a SIEMENS MAGNETOM Lumina MRI and 7 T with a Bruker Pharmascan Kleintier-MRI.

Data set [2] can be described thus: excretion route of the iron complex. As to conditions: in vivo.
A short description of data set [3]: pH dependency of T1- and T2-relaxivity in water (0.94 T NMR relaxometer). The format is physicochemical. As to conditions: pH<6. The text has this:
At pH<6, a maximum T1-relaxivity of 1.7 l·mmol^−1·s^−1 or T2-relaxivity of 1.9 l·mmol^−1·s^−1 was reached.

In the case of `O=C(O)CN(CC(=O)O)[C@@H]1CCCC[C@H]1N(CC(=O)O)CC(=O)N[C@H]1CC[C@H](NC(=O)CN(CC(=O)O)[C@@H]2CCCC[C@H]2N(CC(=O)O)CC(=O)O)CC1` [(1-2)], the “T1-relaxivity (r1) per metal ion” value was 2.18 L/mmol/s in data set [1] (0.94 T, 37° C., FBS (pH 7.7)); 1.99 L/mmol/s in data set [1] (0.94 T, 37° C., water); 3.26 L/mmol/s in data set [1] (1.5 T, 23° C., FBS (pH 7.7)); 2.75 L/mmol/s in data set [1] (1.5 T, 23° C., water); 3.39 L/mmol/s in data set [1] (3.0 T, 37° C., FBS (pH 7.7)); 2.99 L/mmol/s in data set [1] (3.0 T, 37° C., water). The “T1-relaxivity (r1) per metal ion” value in data set [1] (7.0 T, 37° C., FBS (pH 7.7)) is 3.23 L/mmol/s; in data set [1] (7.0 T, 37° C., water), 2.65 L/mmol/s. The T1-relaxivity per molecule in data set [1] (0.94 T, 37° C., FBS (pH 7.7)) is 4.36 L/mmol/s; in data set [1] (0.94 T, 37° C., water), 3.98 L/mmol/s; in data set [1] (1.5 T, 23° C., FBS (pH 7.7)), 6.52 L/mmol/s; in data set [1] (1.5 T, 23° C., water) it was 5.5 L/mmol/s; in data set [1] (3.0 T, 37° C., FBS (pH 7.7)), 6.78 L/mmol/s; in data set [1] (3.0 T, 37° C., water), 5.98 L/mmol/s. Moreover, the T1-relaxivity per molecule stood at 6.46 L/mmol/s in data set [1] (7.0 T, 37° C., FBS (pH 7.7)) and 5.3 L/mmol/s in data set [1] (7.0 T, 37° C., water). Besides, in data set [2], the excretion route entry is listed as “liver excretion”.

With `N[C@H]1CC[C@H](NC(=O)CN(CC(=O)O)[C@@H]2CCCC[C@H]2N(CC(=O)O)CC(=O)O)CC1` [(2-2)], the “T1-relaxivity (r1) per metal ion” value in data set [1] (0.94 T, 37° C., FBS (pH 7.7)) turned out to be 2.01 L/mmol/s; in data set [1] (0.94 T, 37° C., water), 1.92 L/mmol/s; in data set [1] (1.5 T, 23° C., FBS (pH 7.7)) it was 2.74 L/mmol/s; in data set [1] (1.5 T, 23° C., water), 2.27 L/mmol/s; in data set [1] (3.0 T, 37° C., FBS (pH 7.7)), 3.06 L/mmol/s; in data set [1] (3.0 T, 37° C., water) it was 2.64 L/mmol/s. The “T1-relaxivity (r1) per metal ion” value in data set [1] (7.0 T, 37° C., FBS (pH 7.7)) came to 2.61 L/mmol/s; in data set [1] (7.0 T, 37° C., water), 2.38 L/mmol/s.

For the compound `NCCNC(=O)CN(CC(=O)O)[C@@H]1CCCC[C@H]1N(CC(=O)O)CC(=O)O` [(2-1)], in data set [3], the “maximum T1-relaxivity” value worked out at 1.7 L/mmol/s and the “maximum T2-relaxivity” value came to 1.9 L/mmol/s.
